In patent publication US10077243B2, “Compounds for treating disorders mediated by metabotropic glutamate receptor 5, and methods of use thereof” (Sunovion Pharmaceuticals Inc., priority 2009, dated 2018):

Target: T1, human mGluR5 (Homo sapiens, UniProt P41594)
T1 construct: expressed in transfected cells; host or cells: HEK293 cells stably expressing rat GLAST (EAAT1), stably transfected with pcDNAzeo3.1 carrying synthetic human mGluR5 DNA; zeocin-selected single clones
Test: In vitro cell-based FLIPR calcium assay for positive modulation of the activation of mGluR5 by glutamate (PAM EC50)
Details: HEK293/GLAST cells expressing recombinant human mGluR5; FLIPR calcium signal; glutamate added at its EC20; read-out: mGluR5 PAM EC50
Source text: The DNA sequences encoding the structural regions for rat mGluR5 [Abe T, Sugihara H, Nawa H, Shigemoto R, Mizuno N, Nakanishi S (1992) “Molecular characterization of a novel metabotropic glutamate receptor mGluR5 coupled to inositol phosphate/Ca^2+ signal transduction” Journal of Biological Chemistry vol. 267, no. 19, pp. 13361-8] and human mGluR5 [Daggett L P, Sacaan A I, Akong M, Rao S P, Hess S D, Liaw C, Urrutia A, Jachec C, Ellis S B, Dreessen J, Knöpfel T, Landwehrmeyer G B, Testa C M, Young A B, Varney M, Johnson E C, Veliçelebi (1995) “Molecular and functional characterization of recombinant human metabotropic glutamate receptor subtype 5” Neuropharmacology vol. 34, no. […] 53, no. 3, pp. 355-369] was obtained from Dr. Michael Robinson of the Children's Hospital of Philadelphia under a Material Transfer Agreement. The pcDNAzeo3.1 vector DNA, carrying either rat mGluR5 or human mGluR5, was used to transfect a sample of the HEK293/GLAST cells, and single clones that express mGluR5 were isolated from the transfected cells using zeocin selection. Expression of mGluR5 was assessed by measurement of the transient fluorescence signal elicited from HEK293/GLAST/mGluR5 cells by glutamate following the loading of the cells with a calcium-sensitive dye using a FLIPR Tetra (Fluorometric Imaging Plate Reader) (Molecular Devices, Sunnyvale, Calif.) [O'Brien J A, Lemaire W, Chen T B, Chang R S, Jacobson M A, Ha S N, Lindsley C W, Schaffhauser H J, Sur C, Pettibone D J, Conn P J, Williams D L Jr. […] 64, no. 3, pp. 731-740; Assay Guidance Manual Version 5.0, 2008, Eli Lilly and Company and NIH Chemical Genomics Center; available online HEK293/GLAST/mGluR5 cells were grown in Dulbecco's Modified Eagle Medium (DMEM) supplemented with 10% dialyzed fetal bovine serum, 20 millimolar (mM) N-2-hydroxyethylpiperazine-N′-2-ethanesulfonic acid (HEPES), penicillin, streptomycin, 1% GlutaMax™ (Invitrogen) and 50 μg/ml zeocin. Cells were grown in the media to 70-80% confluency at 37° C. under 5% CO2, 95% humidity in poly-D-lysine coated coated flasks. Cells for assays were plated into 96-well sterile standard microtiter plates (pre-coated with poly-D-lysine) at a density of 50,000 cells per well in 0.2 milliliters of media. Plated cells were allowed to settle and adhere for 30 minutes at ambient conditions, and then were incubated overnight at 37° C. under 5% CO2, 95% humidity. Several such 96-well plates were typically prepared. On the day of the assays, the components of the FLIPR calcium 4 assay kit (Molecular Devices) were dissolved according to the instructions of the dye kit's manufacturer in assay buffer (Hank's balanced salt solution (HBSS) (Gibco) supplemented with 20 mM HEPES). After removal of the growth media from the first plate, cells were loaded with calcium dye by addition of calcium dye solution (50 microliters per well) and incubation at 25° C. for 45 to 60 minutes. The first plate was placed into the FLIPR Tetra, and a dilution series of glutamate solutions in assay buffer were added to wells on the plate, followed by acquisition of fluorescence data for several minutes. The fluorescence data (maximal signal as a 4-parameter sigmoidal function of log [glutamate]) were processed by non-linear regression methods using the software package GraphPad Prism 5.01 (GraphPad Software Inc.), to yield a glutamate concentration-response curve (CRC). […] These values were, respectively, the concentrations of glutamate that elicit 20%, 50%, and 80% of the maximal FLIPR signal (observed at saturating [glutamate]). The method for measuring the concentration response of a potentiator, or positive allosteric modulator (PAM), is described here as an example. For that purpose, subsequent assays were typically performed using assay buffer containing a glutamate concentration equal to that day's EC20. […] Addition to certain wells of the same buffer containing 0.3% DMSO, but without any test compound, provided a negative control.

T1 sequence (P41594 21-1212): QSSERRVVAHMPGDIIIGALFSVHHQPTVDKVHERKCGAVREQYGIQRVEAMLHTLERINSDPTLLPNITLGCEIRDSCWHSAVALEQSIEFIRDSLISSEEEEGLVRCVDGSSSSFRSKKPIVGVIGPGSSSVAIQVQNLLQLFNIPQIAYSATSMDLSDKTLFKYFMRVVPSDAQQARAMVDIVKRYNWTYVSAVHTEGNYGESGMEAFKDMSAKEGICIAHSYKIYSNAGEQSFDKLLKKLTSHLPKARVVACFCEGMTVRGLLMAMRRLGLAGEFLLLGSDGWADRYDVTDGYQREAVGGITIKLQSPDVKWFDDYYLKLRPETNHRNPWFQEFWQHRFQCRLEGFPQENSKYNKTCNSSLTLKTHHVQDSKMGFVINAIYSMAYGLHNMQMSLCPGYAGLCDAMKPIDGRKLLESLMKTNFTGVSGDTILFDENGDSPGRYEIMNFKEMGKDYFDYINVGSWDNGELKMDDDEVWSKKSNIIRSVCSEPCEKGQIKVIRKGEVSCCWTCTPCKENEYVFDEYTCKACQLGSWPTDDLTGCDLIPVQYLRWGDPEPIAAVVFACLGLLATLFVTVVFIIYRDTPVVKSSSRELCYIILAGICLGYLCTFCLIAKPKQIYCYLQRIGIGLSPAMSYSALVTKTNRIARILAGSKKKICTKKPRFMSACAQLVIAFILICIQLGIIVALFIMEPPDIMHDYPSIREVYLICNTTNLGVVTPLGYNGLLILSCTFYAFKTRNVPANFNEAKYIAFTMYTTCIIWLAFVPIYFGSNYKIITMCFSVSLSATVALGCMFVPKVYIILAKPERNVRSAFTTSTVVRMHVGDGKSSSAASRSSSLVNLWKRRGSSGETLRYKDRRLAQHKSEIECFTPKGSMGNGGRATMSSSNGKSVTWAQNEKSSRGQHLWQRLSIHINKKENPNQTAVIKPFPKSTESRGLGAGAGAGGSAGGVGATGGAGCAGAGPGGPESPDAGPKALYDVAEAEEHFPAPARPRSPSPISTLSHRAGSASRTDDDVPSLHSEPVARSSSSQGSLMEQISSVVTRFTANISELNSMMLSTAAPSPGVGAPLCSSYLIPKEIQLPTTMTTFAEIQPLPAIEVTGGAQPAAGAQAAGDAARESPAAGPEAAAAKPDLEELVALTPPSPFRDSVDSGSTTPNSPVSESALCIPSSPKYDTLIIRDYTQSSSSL

Row | Structure (SMILES) | EC50 [nM]
1 | O=c1c2ccc(C#Cc3ccc(F)cc3)cc2ncn1CC1CCCO1 (single isomer, unassigned) [1.15/1.16 faster moving enantiomer (fraction 1), 7-((4-fluorophenyl)ethynyl)-3-((tetrahydrofuran-2-yl)methyl)quinazolin-4(3H)-one] | 10 to 30
2 | O=c1c2ccc(C#Cc3ccc(F)cc3)cc2ncn1CC1CCCO1 (single isomer, unassigned) [1.15/1.16 slower moving enantiomer (fraction 2), 7-((4-fluorophenyl)ethynyl)-3-((tetrahydrofuran-2-yl)methyl)quinazolin-4(3H)-one] | 100 to 300
3 | CC1Cc2nc3cc(C#Cc4ccccn4)ccc3c(=O)n2C1 (single isomer, unassigned) [3.12/3.13 faster moving enantiomer (fraction 1), 2-methyl-6-(pyridin-2-ylethynyl)-2,3-dihydropyrrolo[2,1-b]quinazolin-9(1H)-one] | 30 to 100
4 | CC1Cc2nc3cc(C#Cc4ccccn4)ccc3c(=O)n2C1 (single isomer, unassigned) [3.12/3.13 slower moving enantiomer (fraction 2), 2-methyl-6-(pyridin-2-ylethynyl)-2,3-dihydropyrrolo[2,1-b]quinazolin-9(1H)-one] | 10 to 30
5 | COCC1CCc2nc3cc(C#Cc4ccccn4)ccc3c(=O)n2C1 (single isomer, unassigned) [4.34a/4.34b faster moving enantiomer (fraction 1), 8-(methoxymethyl)-3-(pyridin-2-ylethynyl)-8,9-dihydro-6H-pyrido[2,1-b]quinazolin-11(7H)-one] | 30 to 100
6 | COCC1CCc2nc3cc(C#Cc4ccccn4)ccc3c(=O)n2C1 (single isomer, unassigned) [4.34a/4.34b slower moving enantiomer (fraction 2), 8-(methoxymethyl)-3-(pyridin-2-ylethynyl)-8,9-dihydro-6H-pyrido[2,1-b]quinazolin-11(7H)-one] | 30 to 100
7 | CC1CCc2nc3cc(C#Cc4ccccn4)ccc3c(=O)n2CC1 (single isomer, unassigned) [6.10/6.11 faster moving enantiomer (fraction 1), 8-methyl-3-(pyridin-2-ylethynyl)-7,8,9,10-tetrahydroazepino[2,1-b]quinazolin-12(6H)-one] | < 10
8 | CC1CCc2nc3cc(C#Cc4ccccn4)cnc3c(=O)n2CC1 (single isomer, unassigned) [11.9a/11.9b faster moving enantiomer (fraction 1), 8-methyl-3-(pyridin-2-ylethynyl)-7,8,9,10-tetrahydropyrido[3′,2′: 4,5]pyrimido[1,2-a]azepin-12(6H)-one] | 30 to 100
9 | CC1CCc2nc3cc(C#Cc4ccccn4)cnc3c(=O)n2CC1 (single isomer, unassigned) [11.9a/11.9b slower moving enantiomer (fraction 2), 8-methyl-3-(pyridin-2-ylethynyl)-7,8,9,10-tetrahydropyrido[3′,2′:4,5]pyrimido[1,2-a]azepin-12(6H)-one] | 10 to 30
10 | CC1(F)CCc2nc3cc(C#Cc4ccccn4)ccc3c(=O)n2CC1 (single isomer, unassigned) [Example 6.48a/6.48b faster moving enantiomer (fraction 1), 8-fluoro-8-methyl-3-(pyridin-2-ylethynyl)-7,8,9,10-tetrahydroazepino[2,1-b]quinazolin-12(6H)-one] | < 10
11 | CC1(F)CCc2nc3cc(C#Cc4ccccn4)ccc3c(=O)n2CC1 (single isomer, unassigned) [Example 6.48a/6.48b slower moving enantiomer (fraction 2), 8-fluoro-8-methyl-3-(pyridin-2-ylethynyl)-7,8,9,10-tetrahydroazepino[2,1-b]quinazolin-12(6H)-one] | < 10
12 | COC1(C)CCc2nc3cc(C#Cc4ccccn4)ccc3c(=O)n2CC1 (single isomer, unassigned) [Example 6.50a/6.50b slower moving enantiomer (fraction 2), 8-methoxy-8-methyl-3-(pyridin-2-ylethynyl)-7,8,9,10-tetrahydroazepino[2,1-b]quinazolin-12(6H)-one] | 10 to 30
13 | O=c1c2ccc(C#Cc3ccccn3)cc2nc2n1CC1CCCN1CC2 (single isomer, unassigned) [Example 9.4a/9.4b faster moving enantiomer (fraction 1), 9-(pyridin-2-ylethynyl)-2,3,5,6,14,14a-hexahydropyrrolo[2′,1′:3,4][1,4]diazepino[7,1-b]quinazolin-12(1H)-one] | 30 to 100
14 | O=c1c2ccc(C#Cc3ccccn3)cc2nc2n1CC1CCCN1CC2 (single isomer, unassigned) [Example 9.4a/9.4b slower moving enantiomer (fraction 2), 9-(pyridin-2-ylethynyl)-2,3,5,6,14,14a-hexahydropyrrolo[2′,1′:3,4][1,4]diazepino[7,1-b]quinazolin-12(1H)-one] | 100 to 300
15 | O=c1[nH]cnc2cc(C#Cc3cccc(F)c3)ccc12 [Example 1.2, 7-((3-fluorophenyl)ethynyl)quinazolin-4(3H)-one] | 300 to 1000
16 | Cn1cnc2cc(C#Cc3ccccc3)ccc2c1=O [Example 1.3, 3-methyl-7-(phenylethynyl)quinazolin-4(3H)-one] | 100 to 300
17 | Cn1cnc2cc(C#Cc3nccs3)ccc2c1=O [Example 1.5, 3-methyl-7-(thiazol-2-ylethynyl)quinazolin-4(3H)-one] | 300 to 1000
18 | CCCn1cnc2cc(C#Cc3ccc(F)cc3)ccc2c1=O [Example 1.6, 7-((4-fluorophenyl)ethynyl)-3-propylquinazolin-4(3H)-one] | 100 to 300
19 | CCCn1cnc2cc(C#Cc3cccc(F)c3)ccc2c1=O [Example 1.7, 7-((3-fluorophenyl)ethynyl)-3-propylquinazolin-4(3H)-one] | 10 to 30
20 | O=c1c2ccc(C#Cc3cccc(F)c3)cc2ncn1CC1CC1 [Example 1.8, 3-(cyclopropylmethyl)-7-((3-fluorophenyl)ethynyl) quinazolin-4(3H)-one] | 30 to 100
21 | O=c1c2ccc(C#Cc3ccc(F)cc3)cc2ncn1CC1CC1 [Example 1.9, 3-(cyclopropylmethyl)-7-((4-fluorophenyl)ethynyl)quinazolin-4(3H)-one] | 100 to 300
22 | O=c1c2ccc(C#Cc3ccc(F)cc3)cc2ncn1C1CCCC1 [Example 1.10, 3-cyclopentyl-7-((4-fluorophenyl)ethynyl)quinazolin-4(3H)-one] | 30 to 100
23 | O=c1c2ccc(C#Cc3cccc(F)c3)cc2ncn1C1CCCC1 [Example 1.11, 3-cyclopentyl-7-((3-fluorophenyl)ethynyl)quinazolin-4(3H)-one] | 10 to 30
24 | COCCn1cnc2cc(C#Cc3ccc(F)cc3)ccc2c1=O [Example 1.12, 7-((4-fluorophenyl)ethynyl)-3-(2-methoxyethyl)quinazolin-4(3H)-one] | 30 to 100
25 | O=c1c2ccc(C#Cc3ccc(F)cc3)cc2ncn1CC1CCCO1 (centres unmarked) [Example 1.13, 7-((4-fluorophenyl)ethynyl)-3-((tetrahydrofuran-2-yl)methyl)quinazolin-4(3H)-one] | 30 to 100
26 | O=c1c2ccc(C#Cc3ccc(F)cc3)cc2ncn1Cc1ccco1 [Example 1.14, 7-((4-fluorophenyl)ethynyl)-3-(furan-2-ylmethyl)quinazolin-4(3H)-one] | 300 to 1000
